The subject of experiment [1] is E. coli with plasmid pGFP+luc*. Type of experiment: cell-based, E. coli strain MC1061. The conditions noted are these: 5 min. The method, then: Environ. Microbiol. 64: 515-519.
The measurements were done with a combined fluoro- and luminometer, Fluoroscan Ascent FL, provided by Labsystems Ltd. (Helsinki, Finland). Cell growth was simultaneously followed with a flow cytometer.
For the measurements, 100 μl of bacterial culture was pipetted into the microtiter plate wells. Fluorescence was measured using 485 nm for excitation and 510 nm for emission. Measuring time was 20 ms. After the fluorescence measurement 100 μl of luciferin in 0.1 M citric acid-sodium citrate buffer (pH 5.0) was dispensed into the wells and the plate was shaken for two minutes (shaking diameter 1 mm, 1 020 rpm), after which luminescence was recorded with a measuring time of 1000 ms.

Experiment [2] deals with E. coli with plasmid pGFP+luc*. The conditions noted are these: for death: incubation 5 min, 30° C., FIGS. 4 and 5 (plating and live/dead staining). How it is done:
(§1) One colony from a pure culture plate was inoculated in 5 ml of LB-medium with ampicillin (100 μg/ml) and grown at +37° C. in a shaker, 250 rpm, for about three hours. After that, the number of cells per milliliter was determined with flow cytometry by using fluorescent spherical latex particles as a reference. One million cells were then removed to an erlenmeyer with 50 ml of LB medium and ampicillin. The culture was grown over night in a shaker, 190 rpm, at room temperature to prevent the culture from growing into the stationary phase during the night. In the morning, the culture was transferred to and grown in a shaker, 330 rpm, until the stationary phase was reached or used after growth at +30° C. for about 1 h to study the influence of ethanol or serum complement as described below.
Ethanol (Aa, Primalco Oy) was diluted into pure water to obtain concentrations of […], 25, 10, 5, 1 and 0% of ethanol when 500 μl of said dilution was added to 500 μl of said culture in an eppendorf tube. The mixture was vortexed and incubated for 5 minutes before measuring fluorescence and luminescence. Live cells were again counted by plating and also by live/dead staining. In the live/dead protocol used the stain cyto 9 stains all cells whereas propidium iodide stains only the dead cells. After staining, cells are passed through a flow cytometer, with which dead and live cells can be differentiated and their proportion determined. (Virta et al. (1998) Appl. Environ. Microbiol. 64: 515-519.)
The influence of serum complement on the said recombinant E. coli strain was studied using an incubation time of 90 min as described for a different recombinant E. coli strain used in Virta et al. (1998) Appl. Environ. Microbiol. 64: 515-519.
Samples for plating were diluted 10^2 to 10^7 fold with 150 mM NaCl and plated onto L agar plates (L broth containing 1.6% agar). Colonies were counted after overnight incubation at 37° C.

Experiment [3] deals with E. coli with plasmid pGFP+luc*. The conditions noted are these: with increased ethanol concentration, 5 min, FIG. 5. How it is done:
as §1
Ethanol (Aa, Primalco Oy) was diluted into pure water to obtain concentrations of 50, 45, 25, 10, 5, 1 and 0% of ethanol when 500 μl of said dilution was added to 500 μl of said culture in an eppendorf tube. The mixture was vortexed and incubated for 5 minutes before measuring fluorescence and luminescence. Live cells were again counted by plating and also by live/dead staining. […] After staining, cells are passed through a flow cytometer, with which dead and live cells can be differentiated and their proportion determined. […]

Where two headings read alike, the source gives them in different places.

With `CCO` [ethanol, Ethanol], the fluorescence entry in experiment [1] (whatever the ethanol concentration (0-50%), FIG. 2) was “essentially constant”. Also, in experiment [1] (with increased ethanol concentration, FIG. 3), the luminescence entry is reported as “dropped dramatically”. The results for the death entry in experiment [2] (ethanol concentrations above 10%) and in experiment [2] (ethanol concentrations below 5%) were “very pronounced significance” and “more or less unsignificant”, respectively. Also, in experiment [2] (with increased ethanol concentration, 5 min, FIG. 4), the “live cell count according to plate count” value is listed as “dramatically decreasing”. For the same compound, the “percentage of live cells according to the live/dead staining” value in experiment [3] was “dramatically decreasing”.
